# Source: patent publication US12655174B2, “Adenosine A3 receptor agonists, preparation methods and uses thereof” (ZHEJIANG VIMGREEN PHARMACEUTICALS, LTD., priority 2020, dated 2026)
# Assay: Pharmacokinetic test of compound in SD rat
# Format: in vivo
# Conditions: SD rats, intragastric administration (IG), cassette dosing
# Protocol: Example 28: Pharmacokinetic Test of Compound in SD Rat
# The animal species used in this experiment were SD rats. There were 3 animals per group. The rats were dosed in cassette format, i.e., multiple (1-6) different compounds were dosed simultaneously to the same group of the SD rats. The vehicle used for the drug was 5% DMSO+5% Solutl+90% ([…] methylcellulose M450), and the administration route was intragastric administration (IG).
row,AUC_D [kg·ng·h/mL/mg],Structure (SMILES)
1,360.90,"CNC(=O)[C@H]1O[C@@H](n2cnc3c(NCc4cccc(OC)c4)nc(-c4cncc(Cl)c4)nc32)[C@H](O)[C@@H]1O (stereo in doubt) [compound 213, (2S,3S,4R,5S)-5-(2-(5-chloropyridin-3-yl)-6-((3-methoxybenzyl)amino)-9/-purin-9-yl)-3,4-dihydroxyl-N-methyltetrahydrofuran-2-carboxamide]"
2,343.50,"[2H]C([2H])([2H])NC(=O)[C@H]1O[C@@H](n2cnc3c(NCc4cccc(I)c4)ncnc32)[C@H](O)[C@@H]1O [compound 1, (2S,3S,4R,5R)-5-(6-(3-iodobenzylamino)-9H-purin-9-yl)-3,4-dihydroxyl-N-(methyl-d3)-tetrahydrofuran-2-formamide]"
3,152.40,"CONC(=O)[C@H]1O[C@@H](n2cnc3c(NCc4cccc(I)c4)ncnc32)[C@H](O)[C@@H]1O [compound 3, (2S,3S,4R,5R)-5-(6-(3-iodobenzylamino)-9H-purin-9-yl)-3,4-dihydroxyl-N-methoxy-tetrahydrofuran-2-formamide]"
4,146.00,"[2H]C([2H])([2H])NC(=O)[C@H]1O[C@@H](n2cnc3c(NCc4ccccc4)nc(-c4cccnc4)nc32)[C@H](O)[C@@H]1O [compound 10, (2S,3S,4R,5R)-5-(6-(benzylamino)-2-(pyridin-3-yl)-9H-purin-9-yl)-3,4-dihydroxyl-N-(methyl-d3)-tetrahydrofuran-2-formamide]"
5,174.00,"[2H]C([2H])([2H])NC(=O)[C@H]1O[C@@H](n2cnc3c(NCc4ccccc4)nc(-c4ccoc4)nc32)[C@H](O)[C@@H]1O [compound 11, (2S,3S,4R,5R)-5-(6-(benzylamino)-2-(furan-3-yl)-9H-purin-9-yl)-3,4-dihydroxyl-N-(methyl-d3)-tetrahydrofuran-2-formamide]"
6,79.00,"[2H]C([2H])([2H])NC(=O)[C@H]1O[C@@H](n2cnc3c(NCc4ccccc4)nc(-c4ccco4)nc32)[C@H](O)[C@@H]1O [compound 12, (2S,3S,4R,5R)-5-(6-(benzylamino)-2-(furan-2-yl)-9H-purin-9-yl)-3,4-dihydroxyl-N-(methyl-d3)-tetrahydrofuran-2-formamide]"
7,807.78,"[2H]C([2H])([2H])NC(=O)[C@H]1O[C@@H](n2cnc3c(NCc4ccccc4)nc(-c4cncc(Cl)c4)nc32)[C@H](O)[C@@H]1O [compound 15, (2S,3S,4R,5R)-5-(6-(benzylamino)-2-(5-chloropyridin-3-yl)-9H-purin-9-yl)-3,4-dihydroxyl-N-(methyl-d3)-tetrahydrofuran-2-formamide]"
8,1291.00,"[2H]C([2H])([2H])NC(=O)[C@H]1O[C@@H](n2cnc3c(NCc4ccccc4)nc(-c4cncc(C)c4)nc32)[C@H](O)[C@@H]1O [compound 16, (2S,3S,4R,5R)-5-(6-(benzylamino)-2-(5-methylpyridin-3-yl)-9H-purin-9-yl)-3,4-dihydroxyl-N-(methyl-d3)-tetrahydrofuran-2-formamide]"
9,168.00,"[2H]C([2H])([2H])NC(=O)[C@H]1O[C@@H](n2cnc3c(NCc4ccccc4)nc(-c4cnc(C)c(C)c4)nc32)[C@H](O)[C@@H]1O [compound 17, (2S,3S,4R,5R)-5-(6-(benzylamino)-2-(5,6-dimethylpyridin-3-yl)-9/-purin-9-yl)-3,4-dihydroxyl-N-(methyl-d3)-tetrahydrofuran-2-formamide]"
10,74.00,"[2H]C([2H])([2H])NC(=O)[C@H]1O[C@@H](n2cnc3c(NCc4ccccc4)nc(-c4cncc(C#N)c4)nc32)[C@H](O)[C@@H]1O [compound 19, (2S,3S,4R,5R)-5-(6-(benzylamino)-2-(5-cyanopyridin-3-yl)-9H-purin-9-yl)-3,4-dihydroxyl-N-(methyl-d3)-tetrahydrofuran-2-formamide]"
11,1384.00,"[2H]C([2H])([2H])NC(=O)[C@H]1O[C@@H](n2cnc3c(NCc4ccccc4)nc(-c4cncc(F)c4)nc32)[C@H](O)[C@@H]1O [compound 32, (2S,3S,4R,5R)-5-(6-(benzylamino)-2-(5-fluoropyridin-3-yl)-9H-purin-9-yl)-3,4-dihydroxyl-N-(methyl-d3)-tetrahydrofuran-2-formamide]"
12,1578.00,"[2H]C([2H])([2H])NC(=O)[C@H]1O[C@@H](n2cnc3c(NCc4ccccc4)nc(-c4cncc(OC)c4)nc32)[C@H](O)[C@@H]1O [compound 33, (2S,3S,4R,5R)-5-(6-(benzylamino)-2-(5-methoxypyridin-3-yl)-9H-purin-9-yl)-3,4-dihydroxyl-N-(methyl-d3)-tetrahydrofuran-2-formamide]"
13,578.00,"[2H]C([2H])([2H])NC(=O)[C@H]1O[C@@H](n2cnc3c(NCc4ccccc4)nc(-c4cncc(CC)c4)nc32)[C@H](O)[C@@H]1O [compound 34, (2S,3S,4R,5R)-5-(6-(benzylamino)-2-(5-ethylpyridin-3-yl)-9H-purin-9-yl)-3,4-dihydroxyl-N-(methyl-d3)-tetrahydrofuran-2-formamide]"
14,110.00,"CCNC(=O)[C@H]1O[C@@H](n2cnc3c(NC)nc(-c4ccc(OC)nc4)nc32)[C@H](O)[C@@H]1O [compound 58, (2S,3S,4R,5R)-N-ethyl-3,4-dihydroxyl-5-(2-(6-methoxypyridin-3-yl)-6-(methylamino)-9H-purin-9-yl)tetrahydrofuran-2-carboxamide]"
15,360.90,"CNC(=O)[C@H]1O[C@@H](n2cnc3c(NCc4ccccn4)nc(-c4cncc(C)c4)nc32)[C@H](O)[C@@H]1O [compound 69, (2S,3S,4R,5R)-3,4-dihydroxyl-N-methyl-5-(2-(5-methylpyridin-3-yl)-6-((pyridin-2-ylmethyl)amino)-9H-purin-9-yl)tetrahydrofuran-2-carboxamide]"
16,213.00,"CCNC(=O)[C@H]1O[C@@H](n2cnc3c(NC)nc(-c4ccoc4)nc32)[C@H](O)[C@@H]1O [compound 74, (2S,3S,4R,5R)-N-ethyl-5-(2-(furan-3-yl)-6-(methylamino)-9H-purin-9-yl)-3,4-dihydroxyltetrahydrofuran-2-carboxamide]"
17,81.00,"CCNC(=O)[C@H]1O[C@@H](n2cnc3c(NC)nc(-c4ccsc4)nc32)[C@H](O)[C@@H]1O [compound 77, (2S,3S,4R,5R)-N-ethyl-3,4-dihydroxyl-5-(6-(methylamino)-2-(thiophen-3-yl)-9H-purin-9-yl)tetrahydrofuran-2-carboxamide]"
18,115.00,"[2H]C([2H])([2H])NC(=O)[C@H]1O[C@@H](n2cnc3c(NC([2H])([2H])[2H])nc(-c4ccoc4)nc32)[C@H](O)[C@@H]1O [compound 97, (2S,3S,4R,5R)-5-(2-(furan-3-yl)-6-((methyl-d3)amino)-9H-purin-9-yl)-3,4-dihydroxyl-N-(methyl-d)tetrahydrofuran-2-carboxamide]"
19,276.50,"CNC(=O)[C@H]1O[C@@H](n2cnc3c(NCc4ccccc4)nc(-c4cccnc4)nc32)[C@H](O)[C@@H]1O [compound 110, (2S,3S,4R,5R)-5-(6-(benzylamino)-2-(pyridin-3-yl)-9H-purin-9-yl)-3,4-dihydroxyl-N-methyltetrahydrofuran-2-carboxamide]"
20,347.00,"CNC(=O)[C@H]1O[C@@H](n2cnc3c(NCc4ccccc4)nc(-c4cncc(C)c4)nc32)[C@H](O)[C@@H]1O [compound 118, (2S,3S,4R,5R)-5-(6-(benzylamino)-2-(5-methylpyridin-3-yl)-9H-purin-9-yl)-3,4-dihydroxyl-N-methyltetrahydrofuran-2-carboxamide]"
21,86.00,"CNC(=O)[C@H]1O[C@@H](n2cnc3c(NCc4ccccc4)nc(-c4ccc(C)nc4)nc32)[C@H](O)[C@@H]1O [compound 120, (2S,3S,4R,5R)-5-(6-(benzylamino)-2-(6-methylpyridin-3-yl)-9H-purin-9-yl)-3,4-dihydroxyl-N-methyltetrahydrofuran-2-carboxamide]"
22,80.00,"CNC(=O)[C@H]1O[C@@H](n2cnc3c(NCc4ccccc4)nc(-c4ccc(F)c(F)c4)nc32)[C@H](O)[C@@H]1O [compound 143, (2S,3S,4R,5R)-5-(6-(benzylamino)-2-(3,4-difluorophenyl)-9H-purin-9-yl)-3,4-dihydroxyl-N-methyltetrahydrofuran-2-carboxamide]"
23,337.00,"CNC(=O)[C@H]1O[C@@H](n2cnc3c(NCc4ccccc4)nc(-c4ccoc4)nc32)[C@H](O)[C@@H]1O [compound 149, (2S,3S,4R,5R)-5-(6-(benzylamino)-2-(furan-3-yl)-9H-purin-9-yl)-3,4-dihydroxyl-N-methyltetrahydrofuran-2-carboxamide]"
24,1821.60,"CNC(=O)[C@H]1O[C@@H](n2cnc3c(NCc4ccccc4)nc(-c4cncc(Cl)c4)nc32)[C@H](O)[C@@H]1O [compound 150, (2S,3S,4R,5R)-5-(6-(benzylamino)-2-(5-chloropyridin-3-yl)-9H-purin-9-yl)-3,4-dihydroxyl-N-methyltetrahydrofuran-2-carboxamide]"
25,89.00,"CNC(=O)[C@H]1O[C@@H](n2cnc3c(NCc4ccccc4)nc(-c4ccsc4)nc32)[C@H](O)[C@@H]1O [compound 151, (2S,3S,4R,5R)-5-(6-(benzylamino)-2-(thiophen-3-yl)-9H-purin-9-yl)-3,4-dihydroxyl-N-methyltetrahydrofuran-2-carboxamide]"
26,1352.37,"CNC(=O)[C@H]1O[C@@H](n2cnc3c(NCc4ccccc4)nc(-c4cncc([N+](=O)[O-])c4)nc32)[C@H](O)[C@@H]1O [compound 152, (2S,3S,4R,5R)-5-(6-(benzylamino)-2-(5-nitropyridin-3-yl)-9H-purin-9-yl)-3,4-dihydroxyl-N-methyltetrahydrofuran-2-carboxamide]"
